Laboratory results as given in US20240358693A1, “METHODS OF TREATING PAIN” (Aisa Pharma, Inc., priority 2023, published 2024).

Test system: participants with SSc-RP
Experiment: Scleroderma Health Assessment Questionnaire (SHAQ): disability indices and visual analog scales
Format: in vivo, human
Source text: The standard, validated, patient reported outcome measures tool for SSc patients, the Scleroderma Health Assessment Questionnaire (SHAQ), will be used to assess the participant qualify of life. Details are attached in the Appendix. The participant quality of life will be scored, and a disability index calculated for each questionnaire completed by the patient at Screening and each in-clinic visit. The absolute change in participant quality of life from baseline to the end of each dosing period will be calculated similar to frequency data as before.
The SHAQ includes a Raynaud's VAS, which will be reported at screening and each in-clinic visit. The absolute change in Raynaud-VAS, assessed by the participants response to the SHAQ question ‘In the past 7 days, how much have your Raynaud's interfered with your daily activities?’ at baseline and the end of each dosing period will be calculated similar to frequency data as before.
The SHAQ is used to calculate a Disability Index to assess the participant qualify of life. The eight categories assessed by the Disability Index are 1) dressing and grooming, 2) arising, 3) eating, 4) walking, 5) hygiene, 6) reach, 7) grip, and 8) common daily activities. For each of these categories, patients report the amount of difficulty they have in performing two or three specific activities.
There are four possible responses for the Disability Index questions: • Without any difficulty=0 • With some difficulty=1 • With much difficulty=2 • Unable to do=3. • The highest score reported by the patient for any component question of the eight categories determines the score for that category. • If a component question is left blank or the response is too ambiguous to assign a score, then the score for that category is determined by the remaining completed question(s). • If all component questions are blank or if more than one answer is given, then follow up with the respondent is required. • If the respondent's mark is between the response columns, then move it to the closest one. If it's directly between the two, move it to the higher one.
Each of the disability items on the SHAQ has a companion aids/devices variable that is used to record what type(s) of assistance, if any, the participant uses for his/her usual activities. These variables (see below) are coded as follows: • 0=No assistance is needed. • 1=A special device is used by the patient in his/her usual activities. • 2=The patient usually needs help from another person. • 3=The patient usually needs BOTH a special device AND help from another person.
The scoring variables and scoring rules permit the computation of two disability indices, the Standard Disability Index and the Alternative Disability Index.
This question results in a new set of category scores that are computed by adjusting the score for each category, if necessary, based on the patient's use of an aid or device or assistance for that category. If either devices and/or help from another person are checked for a category, the score is set to “2”, unless the score is already “3” (i.e., scores of “0” or “1” are increased to “2”). For example, if the highest score for the dressing category is “1”, and the patient says they use a device for dressing, the computed category score would be “2”. The sum of the computed categories scores is then calculated and divided by the number of categories answered. This gives a score in the 0 to 3 range.
The aid and device variables are not used to calculate the alternative disability index; it is calculated by adding the scores for each of the categories and dividing by the number of categories answered. This gives a score in the 0 to 3 range.
The standard, validated, patient reported outcome measures tool for SSc patients, the SHAQ, was collected at the time points specified in the study schedules (FIG. 2 and FIGS. 4A and 4B) to assess the participant's quality of life. The SHAQ included a Raynaud's VAS that will also be reported separately.

[1] = Baseline, Cilnidipine 20 mg (N = 4), Patients with Diagnosis of SSc, PP Population Part A
[2] = Baseline, Pooled Cilnidipine 10 mg and Cilnidipine 10 mg + Tadalafil 5 mg (N = 9), PP Population Part A
[3] = Baseline, Pooled Cilnidipine 20 mg and Cilnidipine 20 mg + Tadalafil 5 mg (N = 8), PP Population Part A
[4] = Baseline, Pooled Cilnidipine (N = 8), PP Population Part A
[5] = Cilnidipine 10 mg (N = 3), patients with diagnosis of SSc, sensitivity analysis, Modified ITT, Part A
[6] = Cilnidipine 10 mg (N = 4), Modified ITT, Part A
[7] = Cilnidipine 10 mg, Day 12, PP Population Part A, SSc patients

Q: Which results are given for `COCCOC(=O)C1=C(C)NC(C)=C(C(=O)OC/C=C/c2ccccc2)C1c1cccc([N+](=O)[O-])c1` (stereo not shown) [Cilnidipine, cilnidipine]?
A: SHAQ Standard Disability Index, Median (Baseline, Cilnidipine 10 mg (N = 4), Patients with Diagnosis of SSc, PP Population Part A): 0.563; SHAQ Alternative Disability Index, Mean [1]: 0.219; SHAQ Alternative Disability Index, Median [1]: 0.250; SHAQ Standard Disability Index, Mean [1]: 0.344; SHAQ Standard Disability Index, Median [1]: 0.375; SHAQ Visual Analogue Scale - Breathing Problems, Mean [2]: 1.511; SHAQ Visual Analogue Scale - Breathing Problems, Median [2]: 0.800; SHAQ Visual Analogue Scale - Finger Ulcers, Mean [2]: 0.656; SHAQ Visual Analogue Scale - Finger Ulcers, Median [2]: 0.200; SHAQ Visual Analogue Scale - Intestinal Problems, Mean [2]: 2.444; SHAQ Visual Analogue Scale - Intestinal Problems, Median [2]: 1.100; SHAQ Visual Analogue Scale - Overall Disease Severity, Mean [2]: 3.044; SHAQ Visual Analogue Scale - Overall Disease Severity, Median [2]: 1.900; SHAQ Visual Analogue Scale - Pain, Mean [2]: 3.278; SHAQ Visual Analogue Scale - Pain, Median [2]: 3.100; SHAQ Visual Analogue Scale - Raynaud's, Mean [2]: 2.733; SHAQ Visual Analogue Scale - Raynaud's, Median [2]: 1.400; SHAQ Visual Analogue Scale - Breathing Problems, Mean [3]: 1.175; SHAQ Visual Analogue Scale - Breathing Problems, Median [3]: 1.000; SHAQ Visual Analogue Scale - Finger Ulcers, Mean [3]: 1.986; SHAQ Visual Analogue Scale - Finger Ulcers, Median [3]: 0.100; SHAQ Visual Analogue Scale - Intestinal Problems, Mean [3]: 0.813; SHAQ Visual Analogue Scale - Intestinal Problems, Median [3]: 0.650; SHAQ Visual Analogue Scale - Overall Disease Severity, Mean [3]: 3.363; SHAQ Visual Analogue Scale - Overall Disease Severity, Median [3]: 2.950; SHAQ Visual Analogue Scale - Pain, Mean [3]: 2.800; SHAQ Visual Analogue Scale - Pain, Median [3]: 2.900; SHAQ Visual Analogue Scale - Raynaud's, Mean [3]: 2.700; SHAQ Visual Analogue Scale - Raynaud's, Median [3]: 1.700; SHAQ Visual Analogue Scale - Breathing Problems, Mean [4]: 1.600; SHAQ Visual Analogue Scale - Breathing Problems, Median [4]: 0.700; SHAQ Visual Analogue Scale - Finger Ulcers, Mean [4]: 1.171; SHAQ Visual Analogue Scale - Finger Ulcers, Median [4]: 0.300; SHAQ Visual Analogue Scale - Intestinal Problems, Mean [4]: 1.838; SHAQ Visual Analogue Scale - Intestinal Problems, Median [4]: 0.650; SHAQ Visual Analogue Scale - Overall Disease Severity, Mean [4]: 2.925; SHAQ Visual Analogue Scale - Overall Disease Severity, Median [4]: 2.950; SHAQ Visual Analogue Scale - Pain, Mean [4]: 2.250; SHAQ Visual Analogue Scale - Pain, Median [4]: 2.150; SHAQ Visual Analogue Scale - Raynaud's, Mean [4]: 2.338; SHAQ Visual Analogue Scale - Raynaud's, Median [4]: 1.800; SHAQ Standard Disability Index: Baseline, Mean [5]: 0.875; SHAQ Standard Disability Index: Baseline, Median [5]: 1.125; SHAQ Standard Disability Index: Change from Baseline, Mean [5]: 0.000; SHAQ Standard Disability Index: Change from Baseline, Median [5]: 0.000; SHAQ Standard Disability Index: Day 12, Mean [5]: 0.875; SHAQ Standard Disability Index: Day 12, Median [5]: 1.125; SHAQ Standard Disability Index: Percent Change from Baseline, Mean [5]: 0.00%; SHAQ Standard Disability Index: Percent Change from Baseline, Median [5]: 0.00%; SHAQ Overall Severity: Baseline, Mean [6]: 2.725; SHAQ Overall Severity: Baseline, Median [6]: 1.900; SHAQ Overall Severity: Change from Baseline, Mean [6]: −0.900; SHAQ Overall Severity: Change from Baseline, Median [6]: −0.950; SHAQ Overall Severity: Day 12, Mean [6]: 1.825; SHAQ Overall Severity: Day 12, Median [6]: 1.050; SHAQ Overall Severity: Percent Change from Baseline, Mean [6]: −56.96%; SHAQ Overall Severity: Percent Change from Baseline, Median [6]: −44.12%; SHAQ Visual Analogue Scale - Breathing Problems, Change from Baseline, Mean [7]: −0.300; SHAQ Visual Analogue Scale - Breathing Problems, Change from Baseline, Median [7]: 0.000; SHAQ Visual Analogue Scale - Breathing Problems, Percent Change from Baseline, Mean [7]: −16.00%; SHAQ Visual Analogue Scale - Breathing Problems, Percent Change from Baseline, Median [7]: −16.00%
